# Measured values from patent US20090156563A1, “Glucan Compositions” (priority 2005, published 2009).
# Test system: skin of the forearm
# Assay: Determination of skin roughness (DIN 4768ff, profilometry of silicone skin impressions)
# Assay type: in vivo, human
# Conditions: 10% glyceryl stearate, 8 hours after application
# Method: An aqueous lotion for the treatment of skin roughness is formulated from an aqueous emulsion containing 10% by weight of glyceryl stearate and either 0.005% or 0.05% or 0.5% by weight of β-1,3-scleroglucan (using formulations A-D described further above).
# The determination of skin roughness is conducted according to German standard DIN 4768ff. The roughness of the skin is determined by taking silicone-based skin impressions and then measuring the surface profile of the impressions, using computer-aided profilometry. The skin roughness is calculated from the multiple measuring points (100 points per square millimeter). The number of volunteers used is 10. The determination of skin roughness is conducted both prior to application of the test lotion and 8 hours after application of the test lotion. The skin of the forearm is used as the skin test area. For the purpose of comparison, a control experiment is conducted using a placebo containing none of the scleroglucan formulations.
substance,measurement,setting,value
"β-1,3-scleroglucan",reduction of skin roughness (relative to untreated skin),"lotion with 0.005% by weight β-1,3-scleroglucan (formulations A-D)",good reduction
same,reduction of skin roughness (relative to untreated skin),"lotion with 0.05% by weight β-1,3-scleroglucan (formulations A-D)",good reduction
